Data: ChEMBL document CHEMBL3217700, “Synthesis and SAR studies of benzimidazole derivatives as melanin concentrating hormone receptor 1 (MCHR1) antagonists: Focus to detune hERG inhibition” (Medchemcomm, 2011)

What was measured:
[1] = molecular target: T1, Melanin-concentrating hormone receptor 1 (Homo sapiens, UniProt Q99705); assay: Antagonist activity at MCHR1 (unknown origin) assessed as IP3 levels by cell-based functional assay
[2] = molecular target: T1, Melanin-concentrating hormone receptor 1; assay: Displacement of [125I]MCH from human recombinant MCHR1 expressed CHO-K1 cell membrane by SPA-YSI assay; type: cell membranes
hERG (KCNH2) = hERG (KCNH2) (Homo sapiens, UniProt Q12809); assay: Inhibition of human ERG expressed in HEK293 cells at 1 uM after 5 mins by patch clamp assay; type: cell-based; details: HEK293 cells that express hERG
Chain of hERG (KCNH2) (Q12809 whole entry): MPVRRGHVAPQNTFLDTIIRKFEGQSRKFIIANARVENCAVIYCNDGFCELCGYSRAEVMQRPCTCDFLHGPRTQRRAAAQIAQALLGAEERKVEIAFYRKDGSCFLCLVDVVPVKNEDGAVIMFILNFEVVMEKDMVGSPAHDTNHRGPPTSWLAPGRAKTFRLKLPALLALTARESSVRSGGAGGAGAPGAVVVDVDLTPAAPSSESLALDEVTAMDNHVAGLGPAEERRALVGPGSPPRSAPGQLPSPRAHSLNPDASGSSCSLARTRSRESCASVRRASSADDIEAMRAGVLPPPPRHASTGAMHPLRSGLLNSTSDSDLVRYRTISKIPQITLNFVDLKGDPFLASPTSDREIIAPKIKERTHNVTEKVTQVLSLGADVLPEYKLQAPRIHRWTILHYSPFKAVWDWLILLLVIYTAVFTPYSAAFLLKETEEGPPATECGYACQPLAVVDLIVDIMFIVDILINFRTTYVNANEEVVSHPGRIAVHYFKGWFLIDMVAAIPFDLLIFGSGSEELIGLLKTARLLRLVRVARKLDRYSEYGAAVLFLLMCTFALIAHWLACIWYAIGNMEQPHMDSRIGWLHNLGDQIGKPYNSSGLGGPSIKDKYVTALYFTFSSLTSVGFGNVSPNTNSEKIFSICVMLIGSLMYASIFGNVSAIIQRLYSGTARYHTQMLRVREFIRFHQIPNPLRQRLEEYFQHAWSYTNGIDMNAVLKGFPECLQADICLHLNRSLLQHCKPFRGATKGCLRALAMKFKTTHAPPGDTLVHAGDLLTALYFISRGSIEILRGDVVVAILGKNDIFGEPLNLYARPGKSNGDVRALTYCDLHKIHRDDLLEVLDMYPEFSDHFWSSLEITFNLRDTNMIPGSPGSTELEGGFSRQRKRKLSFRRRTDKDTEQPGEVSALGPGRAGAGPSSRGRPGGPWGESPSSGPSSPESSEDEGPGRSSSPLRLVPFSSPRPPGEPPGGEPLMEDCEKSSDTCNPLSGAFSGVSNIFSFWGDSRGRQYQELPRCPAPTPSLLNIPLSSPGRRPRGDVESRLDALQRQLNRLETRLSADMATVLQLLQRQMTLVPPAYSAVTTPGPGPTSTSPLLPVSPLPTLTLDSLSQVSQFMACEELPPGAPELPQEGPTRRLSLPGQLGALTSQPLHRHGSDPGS

Homo sapiens = species on record: Homo sapiens; assay: Selectivity ratio of IC50 for human ERG to IC50 for MCHR1 (unknown origin) assessed as IP3 levels by cell-based functional assay
[3] = molecular target: Voltage-gated inwardly rectifying potassium channel KCNH2 (Homo sapiens, UniProt Q12809); assay: Inhibition of human ERG expressed in HEK293 cells after 5 mins by patch clamp assay; type: cell-based
Chain of Voltage-gated inwardly rectifying potassium channel KCNH2 (Q12809 whole entry): as above

T1 sequence (Q99705 whole entry): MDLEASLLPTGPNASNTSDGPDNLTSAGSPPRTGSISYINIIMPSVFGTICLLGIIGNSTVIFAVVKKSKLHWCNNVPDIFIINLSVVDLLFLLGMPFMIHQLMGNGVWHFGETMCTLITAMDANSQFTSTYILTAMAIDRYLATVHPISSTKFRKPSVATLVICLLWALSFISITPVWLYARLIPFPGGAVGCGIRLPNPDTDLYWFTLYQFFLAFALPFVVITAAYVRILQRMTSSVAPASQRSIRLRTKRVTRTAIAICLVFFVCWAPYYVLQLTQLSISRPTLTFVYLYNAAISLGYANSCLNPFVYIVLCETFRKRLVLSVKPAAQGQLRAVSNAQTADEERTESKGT

Row | IC50 [1] [µM] | IC50 [2] [µM] | Structure (SMILES) | inhibition at 5 min, 1 µM (hERG (KCNH2)) [%] | Ratio IC50 (Homo sapiens) | IC50 [3] [µM]
1 | 0.817 | 0.289 | CC(=O)Nc1cccc(C2CCN(Cc3ccc(C(=O)c4nc5ccccc5n4C)cc3)CC2)c1 |  |  | 
2 | 0.059 | 0.012 | CC(=O)Nc1cccc(C2CCN(Cc3ccc(C(=O)c4nc5cnccc5n4-c4ccc(F)cc4)cc3)CC2)c1 | 36 |  | 
3 | 0.047 | 0.055 | CC(=O)Nc1cccc(C2CCN(Cc3ccc(C(=O)c4nc5ccccc5n4C4CCOCC4)cc3)CC2)c1 |  | 24 | 1.2
4 | 0.003 | 0.01 | CC(=O)Nc1cccc(C2CCN(Cc3ccc(Cc4nc5ccccc5n4-c4ccc(F)cc4)cc3C#N)CC2)c1 | 42 | 131 | 
5 | 0.053 | 0.008 | CC(=O)Nc1cccc(C2CCN(Cc3ccc(Oc4nc5ccccc5n4-c4ccc(F)cc4)cc3)CC2)c1 | 80 |  | 
6 | 0.066 | 0.027 | CC(=O)Nc1cccc(C2CCN(Cc3ccc(C(=O)c4nc5ccccc5n4-c4ccc(F)cc4)cn3)CC2)c1 | 27 |  | 
7 | 0.053 | 0.014 | CC(=O)Nc1cccc(C2CCN(Cc3ccc(C(=O)c4nc5cccnc5n4-c4ccc(F)cc4)cc3)CC2)c1 | 58 |  | 
8 | 0.131 | 0.138 | CC(=O)Nc1cccc(C2CCN(Cc3ccc(C(=O)c4nc5ccccc5n4C(C)C)cc3)CC2)c1 |  |  | 
9 | 0.217 | 0.034 | CC(=O)Nc1cccc(C2CCN(Cc3ccc(C(=O)c4nc5ccccc5n4-c4ccc(Cl)cc4)cc3)CC2)c1 |  | 26 | 1.7
10 | 0.385 | 0.651 | CC(=O)Nc1cccc(C2CCN(Cc3ccc(C(=O)c4nc5ccccc5n4-c4ccc(F)cc4)cc3C#N)CC2)c1 |  |  | 
11 | 0.259 | 0.15 | CC(=O)Nc1cccc(C2CCN(C(C)c3ccc(C(=O)c4nc5ccccc5n4-c4ccc(F)cc4)cc3)CC2)c1 (stereo unspecified) |  |  | 
12 |  |  | CC(=O)Nc1cccc(C2CCN(CCCNc3nc4ccccc4n3-c3ccc(F)cc3)CC2)c1 |  | 3 | 
13 | 0.336 | 0.184 | CC(=O)Nc1cccc(C2CCN(Cc3ccc(C(=O)c4nc5ccccc5n4-c4ccc(F)cc4)cc3Cl)CC2)c1 |  |  | 
14 | 0.015 | 0.011 | CC(=O)Nc1cccc(C2CCN(Cc3ccc(C(=O)c4nc5ccccc5n4-c4ccc(F)cc4)cc3)CC2)c1 |  |  | 
15 | 1.37 | 1 | CC(=O)Nc1cccc(C2CCN(Cc3ccc(C(=O)c4nc5ccccc5n4-c4ccc(C(F)(F)F)cc4)cc3)CC2)c1 |  |  | 
16 |  |  | CC(=O)Nc1cccc(C2CCN(CCCCc3nc4ccccc4n3-c3ccc(F)cc3)CC2)c1 |  | 10 | 
17 | 0.26 | 0.172 | CC(=O)Nc1cccc(C2CCN(Cc3ccc(C(=O)c4nc5ccccc5n4-c4ccc(C#N)cc4)cc3)CC2)c1 |  |  | 
18 | 0.003 | 0.0009 | CC(=O)Nc1cccc(C2CCN(Cc3ccc(Cc4nc5ccccc5n4-c4ccc(F)cc4)cc3)CC2)c1 | 98 |  | 
19 | 0.037 | 0.011 | CC(=O)Nc1cccc(C2CCN(Cc3ccc(C(=O)c4nc5ccccc5n4-c4ccc(F)cc4)nc3)CC2)c1 | 37 |  | 
20 | > 10 | 3.25 | CC(=O)Nc1cccc(C2CCN(Cc3ccc(C(=O)c4nc5ccccc5n4-c4ccc(F)cc4)cc3C(F)(F)F)CC2)c1 |  |  | 
21 | 0.096 | 0.022 | CC(=O)Nc1cccc(C2CCN(Cc3ccc(C(=O)c4nc(C)c(C)n4-c4ccc(F)cc4)cc3)CC2)c1 |  | 18 | 1.7
22 | 0.412 | 0.271 | CC(=O)Nc1cccc(C2CCN(Cc3ccc(C(=O)c4nc5ccccc5n4C4CC4)cc3)CC2)c1 |  |  | 
23 | 0.043 | 0.015 | CC(=O)Nc1cccc(C2CCN(Cc3ccc(C(=O)c4nc5c(F)cc(F)cc5n4-c4ccc(F)cc4)cc3)CC2)c1 | 70 |  | 
24 | 0.08 | 0.046 | CC(=O)Nc1cccc(C2CCN(Cc3ccc(C(=O)c4nc5ccccc5n4-c4ccc(F)cc4)cc3F)CC2)c1 |  |  | 
